From patent US20230172204A1 (BASF SE, priority 2020, published 2023)
Where two headings read alike, the source gives them in different places.

What was measured:
Leptosphaeria nodorum = assay: Micro titer plate test against Leptosphaeria nodorum causing wheat leaf spots (LEPTNO); assay type: cell-based; conditions: for activity at 0.063 ppm: Parastagonospora nodorum, 168 h, read-out: Fungal growth (%) LEPTNO
Alternaria solani (wt) = assay: microbe, parasite or virus in culture; assay type: cell-based
[1] = tested on: Alternaria solani (F129L); assay: Micro titer plate test against Alternaria solani causing early blight (ALTESO F129L); assay type: cell-based
Pyrenophora teres (wt) = assay: Micro titer plate test against Pyrenophora teres causing net blotch on barley (PYRNTE wt); assay type: cell-based; conditions: 168 h, read-out: Fungal growth (%) PYRNTE wt
Cercospora sojina = assay: microbe, parasite or virus in culture; assay type: cell-based; conditions: for activity at 4 ppm: Cercospora sojina, 168 h, read-out: Fungal growth (%) CERCSO
Pyricularia oryzae = assay: microbe, parasite or virus in culture; assay type: cell-based; conditions: for activity at 0.016 ppm: Pyricularia oryzae, 168 h, read-out: Fungal growth (%) PYRIOR
Septoria tritici = assay: microbe, parasite or virus in culture; assay type: cell-based; conditions: for activity at 0.25 ppm: Zymoseptoria tritici, 168 h, read-out: Fungal growth (%) SEPTTR
[2] = tested on: Colletotrichum orbiculare; assay: Micro titer plate test against Colletotrichum orbiculare causing anthracnose (COLLLA); assay type: cell-based; conditions: for activity at 0.063 ppm: Colletotrichum orbiculare, 168 h, read-out: Fungal growth (%) COLLLA
Microdochium nivale = assay: Micro titer plate test against Microdochium nivale causing snow mould (MONGNI); assay type: cell-based; conditions: for activity at 0.016 ppm: Microdochium nivale, 168 h, read-out: Fungal growth (%) MONGNI
[3] = tested on: Phakopsora pachyrhizi (F129L); assay: Protective control of soybean rust on soybeans (PHAKPA P2); assay type: in vivo; conditions: for % PHAKPA (F129L) Disease level P2 at 4 ppm: protective P2, 4 ppm; for % PHAKPA (F129L) Disease level P2 at 4 ppm / % PHAKPA (F129L) Disease level P2 at 16 ppm: soybean rust F129L; for % PHAKPA (F129L) Disease level P2 at 16 ppm: protective P2, 16 ppm
[4] = tested on: Phakopsora pachyrhizi (F129L); assay: Protective control of soybean rust on soybeans (PHAKPA P6); assay type: in vivo; conditions: for % PHAKPA (F129L) Disease level P6 at 4 ppm: protective P6, 4 ppm; for % PHAKPA (F129L) Disease level P6 at 4 ppm / % PHAKPA (F129L) Disease level P6 at 16 ppm: soybean rust F129L; for % PHAKPA (F129L) Disease level P6 at 16 ppm: protective P6, 16 ppm
[5] = Alternaria solani, 168 h, 0.016 ppm, read-out: Fungal growth (%) ALTESO wt
[6] = Alternaria solani, 168 h, 0.016 ppm, read-out: Fungal growth (%) ALTESO F129L
[7] = P2 protective, % diseased leaf area

Compound	activity at 0.063 ppm (Leptosphaeria nodorum)	activity at 0.016 ppm (Alternaria solani (wt); [5])	activity at 0.016 ppm [1, 6]	activity at 4 ppm (Cercospora sojina; 4 ppm)	activity at 0.016 ppm (Pyricularia oryzae)	activity at 0.25 ppm (Septoria tritici)	activity at 0.063 ppm [2]	further results
CO/N=C(/C(=O)OC)c1cccc(C)c1CO/N=C(\SC)c1cccc(C)c1 [drawing 953]	85%	67%	66%	71%	–	–	–	activity at 0.25 ppm (Pyrenophora teres (wt)): 59%
CNC(=O)/C(=N/OC)c1cccc(C)c1CO/N=C(/c1cccc(C)c1)C1CC1 [drawing 958]	–	89%	93%	–	81%	87%	93%	–
CO/N=C(/C(=O)OC)c1cccc(C)c1CO/N=C(/c1cccc(Cl)c1)C1CC1 [drawing 964]	–	–	–	61%	–	–	–	activity at 0.25 ppm (Pyrenophora teres (wt)): 69%
CO/N=C(/C(=O)OC)c1cccc(C)c1CO/N=C(\C)c1cccc(OC(F)(F)F)c1 [drawing 938]	–	–	–	–	–	–	77%	activity at 4 ppm ([1]; Alternaria solani, 168 h, 4 ppm, read-out: Fungal growth (%) ALTESO F129L): 87%
CNC(=O)/C(=N/OC)c1cccc(C)c1CO/N=C(\OC)c1cccc(C)c1 [drawing 957]	–	93%	95%	–	80%	100%	81%	–
CNC(=O)/C(=N/OC)c1cccc(C)c1CO/N=C(\OC)c1cccc(C(F)(F)F)c1 [drawing 946]	95%	100%	87%	–	39%	77%	–	–
CO/N=C(/C(=O)OC)c1cccc(C)c1CO/N=C(\SC)c1cccc(Cl)c1 [drawing 960]	–	94%	100%	–	88%	39%	82%	–
CO/N=C(/C(=O)OC)c1cccc(C)c1CO/N=C(\SC)c1cccc(C)c1 [drawing 950]	–	–	–	–	87%	61%	81%	activity at 0.016 ppm (Microdochium nivale): 69%
CNC(=O)/C(=N/OC)c1cccc(C)c1CO/N=C(\SC)c1cccc(C(F)(F)F)c1 [drawing 944]	93%	–	85%	66%	49%	–	–	activity at 0.016 ppm (Microdochium nivale): 84%
CO/N=C(/C(=O)OC)c1cccc(C)c1CO/N=C(\SC)c1cccc(Cl)c1 [drawing 963]	88%	–	–	62%	–	–	–	activity at 0.25 ppm (Pyrenophora teres (wt)): 57%; activity at 0.016 ppm (Microdochium nivale): 95%
CO/N=C(/C(=O)OC)c1cccc(C)c1CO/N=C(/c1cccc(Cl)c1)C1CC1 [drawing 961]	–	81%	89%	–	83%	39%	89%	–
CNC(=O)/C(=N/OC)c1cccc(C)c1CO/N=C(\C)c1cccc(C(F)(F)F)c1 [Ex. 8]	70%	56%	–	–	13%	57%	–	PHAKPA (F129L) Disease level (%) P2 at 1 ppm ([3]; P2 protective, 1 ppm, % diseased leaf area): 6%; PHAKPA (F129L) Disease level (%) P2 at 4 ppm [3, 7]: 1%; % PHAKPA (F129L) Disease level P2 at 4 ppm [3]: 4%; % PHAKPA (F129L) Disease level P2 at 16 ppm [3]: 0%; % PHAKPA (F129L) Disease level P6 at 4 ppm [4]: 5%; % PHAKPA (F129L) Disease level P6 at 16 ppm [4]: 0%; Fungal growth (%) LEPTNO (Leptosphaeria nodorum): 70%; activity at 0.016 ppm ([1]; Alternaria solani, 168 h, read-out: Fungal growth (%) ALTESO F129L, 0.016 ppm): 55%; Fungal growth (%) CERCSO (Cercospora sojina; 4 ppm): 27%; activity at 4 ppm (Cercospora sojina): 27%; Fungal growth (%) MONGNI (Microdochium nivale): 54%; activity at 0.016 ppm (Microdochium nivale): 54%
CO/N=C(/C(=O)OC)c1cccc(C)c1CO/N=C(\C)c1cccc(OC(F)(F)F)c1 [drawing 934]	–	94%	–	33%	100%	–	–	activity at 0.025 ppm (Pyrenophora teres (wt)): 84%
CO/N=C(/C(=O)OC)c1cccc(C)c1CO/N=C(\C)c1cccc(Cl)c1 [Ex. 153]	55%	71%	68%	26%	50%	0%	55%	PHAKPA (F129L) Disease level (%) P2 at 4 ppm [3, 7]: 19%; PHAKPA (F129L) Disease level (%) P2 at 16 ppm [3, 7]: 5%; % PHAKPA (F129L) Disease level P2 at 4 ppm [3]: 12%; % PHAKPA (F129L) Disease level P2 at 16 ppm [3]: 3%; % PHAKPA (F129L) Disease level P6 at 4 ppm [4]: 22%; % PHAKPA (F129L) Disease level P6 at 16 ppm [4]: 1%; activity at 0.25 ppm (Pyrenophora teres (wt)): 31%; activity at 0.016 ppm (Microdochium nivale): 75%
CNC(=O)/C(=N/OC)c1cccc(C)c1CO/N=C(\C)c1cccc(C)c1 [Ex. 77]	–	–	–	–	–	–	–	PHAKPA (F129L) Disease level (%) P2 at 4 ppm [3, 7]: 37%; % PHAKPA (F129L) Disease level P2 at 4 ppm [3]: 67%; % PHAKPA (F129L) Disease level P2 at 16 ppm [3]: 4%; PHAKPA (F129L) Disease level (%) P6 at 16 ppm ([4]; P6 protective, 16 ppm, % diseased leaf area): 20%; % PHAKPA (F129L) Disease level P6 at 4 ppm [4]: 40%; % PHAKPA (F129L) Disease level P6 at 16 ppm [4]: 3%; Fungal growth (%) PYRIOR (Pyricularia oryzae; 0.016 ppm): 20%; Fungal growth (%) SEPTTR (Septoria tritici; 0.25 ppm): 49%; Fungal growth (%) COLLLA ([2]; 0.063 ppm): 39%; Fungal growth (%) ALTESO wt (Alternaria solani (wt); 0.016 ppm): 73%; Fungal growth (%) ALTESO F129L ([1]; 0.016 ppm): 69%
CO/N=C(/C(=O)OC)c1cccc(C)c1CO/N=C(\C)c1cccc(C(F)(F)F)c1 [Ex. 9]	67%	73%	–	11%	38%	–	–	PHAKPA (F129L) Disease level (%) P2 at 16 ppm [3, 7]: 23%; % PHAKPA (F129L) Disease level P2 at 4 ppm [3]: 35%; % PHAKPA (F129L) Disease level P2 at 16 ppm [3]: 23%; PHAKPA (F129L) Disease level (%) P6 at 4 ppm ([4]; P6 protective, 4 ppm, % diseased leaf area): 41%; % PHAKPA (F129L) Disease level P6 at 4 ppm [4]: 41%; % PHAKPA (F129L) Disease level P6 at 16 ppm [4]: 4%; activity at 0.025 ppm (Pyrenophora teres (wt)): 44%
CO/N=C(/C(=O)OC)c1cccc(C)c1CO/N=C(/c1cccc(C)c1)C1CC1 [drawing 955]	100%	100%	87%	87%	–	–	–	activity at 0.25 ppm (Pyrenophora teres (wt)): 78%
CNC(=O)/C(=N/OC)c1cccc(C)c1CO/N=C(\OC)c1cccc(C(F)(F)F)c1 [drawing 948]	–	–	–	60%	–	–	–	activity at 0.016 ppm (Microdochium nivale): 80%
CO/N=C(/C(=O)OC)c1cccc(C)c1CO/N=C(\OC)c1cccc(C(F)(F)F)c1 [drawing 942]	100%	–	–	56%	58%	–	–	–
CO/N=C(/C(=O)OC)c1cccc(C)c1CO/N=C(\OC)c1cccc(C)c1 [drawing 954]	65%	93%	81%	67%	–	–	–	activity at 0.25 ppm (Pyrenophora teres (wt)): 53%
CNC(=O)/C(=N/OC)c1cccc(C)c1CO/N=C(\SC)c1cccc(Cl)c1 [drawing 966]	–	–	90%	–	100%	59%	82%	activity at 0.25 ppm (Alternaria solani (wt); Alternaria solani, 168 h, 0.25 ppm, read-out: Fungal growth (%) ALTESO wt): 43%
